Data: ChEMBL document CHEMBL1129999, “Modeling, chemistry, and biology of the benzolactam analogues of indolactam V (ILV). 2. Identification of the binding site of the benzolactams in the CRD2 activator-binding domain of PKCdelta and discovery of an ILV analogue of improved isozyme selectivity” (J Med Chem, 1997)

Experiments:
[1] = target: Protein kinase C alpha type (Homo sapiens, UniProt P17252); test: Displacement of [3H]- PDBu from recombinant PKC alpha expressed in baculovirus
[2] = target: T1, Protein kinase C delta type (Homo sapiens, UniProt Q05655); test: Inhibition of [3H]PDBu binding to PKC delta mutant Gln 27-Gly (No binding)
Target sequence in this assay (Q05655 whole entry, looked up): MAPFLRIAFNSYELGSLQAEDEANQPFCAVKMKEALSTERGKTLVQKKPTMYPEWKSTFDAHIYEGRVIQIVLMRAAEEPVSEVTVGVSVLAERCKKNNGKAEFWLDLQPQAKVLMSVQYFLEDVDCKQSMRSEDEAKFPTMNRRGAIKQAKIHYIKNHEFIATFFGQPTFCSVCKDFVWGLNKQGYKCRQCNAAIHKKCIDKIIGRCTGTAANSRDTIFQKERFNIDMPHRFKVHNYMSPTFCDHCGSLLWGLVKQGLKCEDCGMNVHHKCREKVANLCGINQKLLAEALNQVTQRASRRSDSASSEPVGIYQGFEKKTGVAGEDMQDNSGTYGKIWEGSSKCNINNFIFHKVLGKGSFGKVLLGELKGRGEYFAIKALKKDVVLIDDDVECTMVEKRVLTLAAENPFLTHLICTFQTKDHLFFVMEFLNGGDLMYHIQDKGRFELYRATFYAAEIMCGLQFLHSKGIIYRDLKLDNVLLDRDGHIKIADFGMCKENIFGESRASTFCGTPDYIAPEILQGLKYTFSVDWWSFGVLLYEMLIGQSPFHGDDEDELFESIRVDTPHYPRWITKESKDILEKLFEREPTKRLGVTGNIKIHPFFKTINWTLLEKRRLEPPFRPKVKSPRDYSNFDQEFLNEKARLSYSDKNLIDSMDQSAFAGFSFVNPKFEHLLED

[3] = target: T1, Protein kinase C delta type; test: Inhibition of [3H]-PDBu binding to PKC delta mutant Leu 24-Gly (No binding)
Target sequence in this assay (Q05655 whole entry, looked up): as above

[4] = target: T1, Protein kinase C delta type; test: Displacement of [3H]- PDBu from recombinant PKC delta expressed in baculovirus
Target sequence in this assay (Q05655 whole entry): as the sequence (Q05655 whole entry, looked up) above

[5] = target: T2, Protein kinase C epsilon type (Homo sapiens, UniProt Q02156); test: Displacement of [3H]- PDBu from recombinant PKC epsilon expressed in baculovirus
T2 sequence (Q02156 whole entry): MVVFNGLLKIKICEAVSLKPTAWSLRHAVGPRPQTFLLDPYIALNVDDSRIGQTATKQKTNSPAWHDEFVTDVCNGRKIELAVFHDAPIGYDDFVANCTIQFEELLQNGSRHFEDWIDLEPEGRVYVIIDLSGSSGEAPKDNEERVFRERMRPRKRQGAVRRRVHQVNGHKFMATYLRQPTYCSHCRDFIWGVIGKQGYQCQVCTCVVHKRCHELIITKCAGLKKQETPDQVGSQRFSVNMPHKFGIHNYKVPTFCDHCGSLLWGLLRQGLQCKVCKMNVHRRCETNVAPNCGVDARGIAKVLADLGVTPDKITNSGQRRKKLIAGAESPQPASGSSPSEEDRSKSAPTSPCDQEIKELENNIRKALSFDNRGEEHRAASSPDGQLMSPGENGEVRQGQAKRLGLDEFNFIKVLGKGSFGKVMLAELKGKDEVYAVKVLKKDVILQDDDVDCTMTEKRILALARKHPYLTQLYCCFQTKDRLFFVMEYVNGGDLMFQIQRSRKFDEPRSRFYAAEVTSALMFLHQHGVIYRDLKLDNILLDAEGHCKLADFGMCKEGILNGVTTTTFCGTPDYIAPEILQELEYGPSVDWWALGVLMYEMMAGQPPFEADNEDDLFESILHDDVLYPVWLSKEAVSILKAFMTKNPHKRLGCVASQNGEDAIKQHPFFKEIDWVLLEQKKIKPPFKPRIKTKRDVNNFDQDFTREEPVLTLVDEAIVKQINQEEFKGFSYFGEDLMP

[6] = target: Protein kinase C gamma type (Homo sapiens, UniProt P05129); test: Displacement of [3H]- PDBu from recombinant PKC gamma expressed in baculovirus
[7] = target: Protein kinase C beta type (Homo sapiens, UniProt P05771); test: Displacement of [3H]- PDBu from recombinant PKC beta expressed in baculovirus
[8] = target: T1, Protein kinase C delta type; test: Inhibition of [3H]-PDBu binding to PKC delta mutant Gln 27-Val
Target sequence in this assay (Q05655 whole entry, looked up): as the sequence (Q05655 whole entry, looked up) above

[9] = target: T1, Protein kinase C delta type; test: Inhibition of [3H]PDBu binding to PKC delta mutant Leu 20-Gly
Target sequence in this assay (Q05655 whole entry, looked up): as the sequence (Q05655 whole entry, looked up) above

[10] = target: T1, Protein kinase C delta type; test: Inhibition of [3H]PDBu binding to PKC delta mutant Pro 11-Gly
Target sequence in this assay (Q05655 whole entry, looked up): as the sequence (Q05655 whole entry, looked up) above

[11] = target: T1, Protein kinase C delta type; test: Inhibition of [3H]PDBu binding to PKC delta wild type
Target sequence in this assay (Q05655 whole entry): as the sequence (Q05655 whole entry, looked up) above

Sequence of Protein kinase C beta type (P05771 whole entry): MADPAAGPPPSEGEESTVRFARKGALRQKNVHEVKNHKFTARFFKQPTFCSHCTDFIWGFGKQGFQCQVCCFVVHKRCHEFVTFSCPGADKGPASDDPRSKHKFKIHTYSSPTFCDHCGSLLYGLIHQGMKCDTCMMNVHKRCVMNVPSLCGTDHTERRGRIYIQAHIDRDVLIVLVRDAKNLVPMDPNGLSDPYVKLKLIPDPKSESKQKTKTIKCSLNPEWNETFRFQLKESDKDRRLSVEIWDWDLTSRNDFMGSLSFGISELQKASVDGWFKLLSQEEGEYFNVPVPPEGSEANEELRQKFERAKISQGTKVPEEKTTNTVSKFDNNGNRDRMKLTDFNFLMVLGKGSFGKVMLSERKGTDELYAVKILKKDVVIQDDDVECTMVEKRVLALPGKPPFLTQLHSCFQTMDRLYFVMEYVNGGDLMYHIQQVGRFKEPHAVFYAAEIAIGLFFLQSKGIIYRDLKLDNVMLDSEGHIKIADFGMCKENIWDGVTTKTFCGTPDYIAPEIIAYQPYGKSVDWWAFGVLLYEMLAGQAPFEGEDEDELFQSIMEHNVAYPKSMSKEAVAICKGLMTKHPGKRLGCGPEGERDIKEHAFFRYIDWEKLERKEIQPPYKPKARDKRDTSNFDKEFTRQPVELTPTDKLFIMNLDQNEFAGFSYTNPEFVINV

Compound | Ki [1] [nM] | Ki [2] | Ki [3] | Ki [4] [nM] | Ki [5] [nM] | Ki [6] [nM] | Ki [7] [nM] | Ki [8] [nM] | Ki [9] [nM] | Ki [10] [nM] | Ki [11] [nM]
CC(C)[C@H]1C(=O)N[C@H](CO)Cc2ccccc2N1C | 334 | – | – | – | – | – | – | – | – | – | –
CCCC(=O)O[C@@H]1[C@@H](C)[C@@]2(O)[C@@H](C=C(CO)C[C@]3(O)C(=O)C(C)=C[C@@H]23)[C@@H]2C(C)(C)[C@]12OC(=O)CCC | – | Not Active | Not Active | – | – | – | – | – | – | – | –
CCCCCCCCCCc1ccc2c(c1)C[C@@H](CO)NC(=O)[C@H](C(C)C)N2C | 46.6 | – | – | 142 | 187 | 122 | – | – | – | – | –
CCCCCCCCc1ccc2c3c(c[nH]c13)C[C@@H](CO)NC(=O)[C@H](C(C)C)N2C | 0.5 | – | – | 0.8 | 1 | 1.2 | 0.4 | – | – | – | –
CCCCCCCCC#Cc1ccc2c(c1)C[C@@H](CO)NC(=O)[C@H](C(C)C)N2C | 14.7 | – | – | 122 | 142 | 40.7 | 17.4 | 933 | 134 | 730 | 10.7
CC(C)[C@H]1C(=O)N[C@H](CO)Cc2c[nH]c3cccc(c23)N1C [INDOLACTUM] | – | – | – | 8.2 | 21.9 | 19.4 | 6.1 | – | – | – | –
